Assay results taken from patent US11214567B2, “Small molecule inhibitors of MYC and uses thereof” (The Regents of the University of Michigan, priority 2017, dated 2022).
Entries after “also recorded” stand apart in the source; their conditions may differ.

What was measured:
NCI/ADR-RES = assay: MTT assay (cytotoxicity), NCI/ADR-RES; assay type: cell-based, human
Experimental: (§1) The evaluation of cytotoxicity was based on the reduction of MTT dye by viable cells to give purple formazan products, which can be measured spectrophotometrically at 540 nm. One hundred eighty microliters of cancer cells were seeded into 96-well plates at 3,500-4,000 cells/well and incubated at 37° C. overnight before the indicated treatments. After 72 h, 20 μl of MTT solution (3 mg/ml) was added and incubated again for 3 h. After removal of media and solubilization of formazan crystals in 150 μL of DMSO, the absorbance was measured at 570 nm. Percentage of cell growth inhibition was expressed as 1-[(A−B)/(C−B)]×100% (A, B and C were the absorbance values from experimental, blank and control cells, respectively).
(§2) KJA derivatives were tested by the MTT assay against five human cancer cell lines including ovarian cancer cell lines (OVCAR-8, NCI/ADR-RES and SKOV3) and pancreatic cancer cell lines (MIA PaCa-2 and Pac-1). […] It is important to note that the NCI/ADR-RES cell line shares a large number of karyotypic abnormalities with OVCAR-8 but expresses high levels of MDR1 (multidrug resistance protein 1)/P-glycoprotein (see, e.g., Xu, S.; et al., Proceedings of the National Academy of Sciences 2012, 109, 16348-16353), resulting in resistance to multiple anticancer drugs in clinical use, including paclitaxel and doxorubicin.

SKOV3 = assay: MTT assay (cytotoxicity), SKOV3; assay type: cell-based; details: Homo sapiens, SK-OV-3, 72 h, drug concentration causing a 50% decrease in cell population
Experimental: as §1, §2

MIA PaCa-2 = assay: MTT assay (cytotoxicity), MIA PaCa-2; assay type: cell-based; details: Homo sapiens, 72 h, drug concentration causing a 50% decrease in cell population
Experimental: as §1, §2

Panc1 = assay: MTT assay (cytotoxicity), Panc1; assay type: cell-based; details: Homo sapiens, PANC-1, 72 h, drug concentration causing a 50% decrease in cell population
Experimental: as §1, §2

[1] = test system: five human cancer cell lines (OVCAR-8, NCI/ADR-RES, SKOV3, MIA PaCa-2, Pac-1); assay: MTT assay, panel of five human cancer cell lines; assay type: cell-based; details: span over the five cell lines, read-out: IC50 against five cancer cell lines
Experimental: as §1, §2

NCI/ADR-RES cells = assay: Colony formation assay; assay type: cell-based, human; details: 24 h treatment; low concentration
Experimental: Colony formation assay. Colony formation assay is an in vitro cell survival assay based on the ability of a single cell to grow into a colony. This technique was also performed to confirm the activity. Briefly, cells were plated in 96-well plates at a density of 300 cells/well and allowed to attach overnight. The next day, the corresponding compounds were added and allowed to incubate for 24 h. After exposure, cells were changed the new media and cultured until colonies were formed (7-10 days). Cells were subsequently washed and stained with a solution of crystal violet for 30 min. After staining, cells were thoroughly washed with water. Colonies were imaged on the inverted fluorescence microscope and were counted using ImageJ software.

GLIPR1 = assay: Western blotting of GLIPR1 protein levels; assay type: cell-based, human; details: NCI/ADR-RES; Western blot
tumor = assay: Tumor size, body weight and gross toxicity in treated mice; assay type: in vivo
From the text: Error bars indicate Mean±SEM. and *p<0.05.

Structure (SMILES): Cc1ccc(-c2noc(-c3ccccc3-n3c(-c4ccc(C)cc4)noc3=O)n2)cc1 [KJA03, 3-(P-tolyl)-4-(2-(3-(p-tolyl)-1,2,4-oxadiazol-5-yl)phenyl)-1,2,4-oxadiazol-5(4H)-one]
- IC50 (NCI/ADR-RES; Homo sapiens, NCI/ADR-RES, MTT, 72 h, drug concentration causing a 50% decrease in cell population): 200 ± 60 nM
- growth of NCI/ADR-RES (NCI/ADR-RES; MTT assay after 72 h treatment): inhibited growth
- IC50 (SKOV3): 310 ± 160 nM
- IC50 (MIA PaCa-2): 130 nM
- IC50 (Panc1): 170 nM
- IC50 [1]: 130 to 310 nM
- colony formation in NCI/ADR-RES (NCI/ADR-RES cells): significantly inhibited colony formation
- GLIPR1 protein levels (GLIPR1): gradually upregulated; also recorded: up-regulated
- tumor sizes (tumor; mice, 10 mg/kg, *p<0.05): tumor sizes were reduced
- gross toxicity such as weakness, weight loss or lethargy (tumor; mouse, in vivo): no symptoms of gross toxicity
